How the values were obtained:
KRAS G12S = target: T1, KRAS G12S (Homo sapiens, UniProt P01116, G12S); assay: HTRF assay, interaction of GST-tagged K-Ras with His-tagged hSOS1 (KRAS G12S); type: biochemical; settings: <500 nM, read-out: Inhibition of KRAS G12S (IC50)
T1 construct: made in house; host or cells: E. coli BL21 (DE3)
How it was run: (§1)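 GST-K-Ras (G12S or WT) with anti-GST-Eu donor mixed with His-hSOS1 and anti-6His-XL665 acceptor in ~5 mM HEPES pH 7.4, 150 mM NaCl, 1 mM DTT, 0.05% BSA, 0.0025% Igepal. After ~10 min or longer, HTRF 665/620 nm ratio read.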

KRAS WT = target: T2, KRAS WT (Homo sapiens, UniProt P01116); assay: HTRF assay, interaction of GST-tagged K-Ras with His-tagged hSOS1 (KRAS wildtype); type: biochemical; settings: <500 nM, read-out: Inhibition of KRAS WT (IC50)
T2 construct: made in house; host or cells: E. coli BL21 (DE3)
How it was run: as §1

T2 sequence (P01116 1-188 isoform P01116-2): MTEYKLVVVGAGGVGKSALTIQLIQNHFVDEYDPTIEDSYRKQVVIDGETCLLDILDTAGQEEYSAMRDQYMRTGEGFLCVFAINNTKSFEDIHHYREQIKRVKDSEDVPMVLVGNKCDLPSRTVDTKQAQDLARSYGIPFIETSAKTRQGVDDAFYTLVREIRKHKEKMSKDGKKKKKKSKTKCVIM
T1 sequence (P01116 1-188 isoform P01116-2 G12S): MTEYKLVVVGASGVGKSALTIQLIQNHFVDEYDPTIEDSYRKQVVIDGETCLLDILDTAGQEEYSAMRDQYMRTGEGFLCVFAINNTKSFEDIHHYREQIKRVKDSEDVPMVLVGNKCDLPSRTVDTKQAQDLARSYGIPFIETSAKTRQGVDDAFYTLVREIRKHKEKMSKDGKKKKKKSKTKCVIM

IC50 (KRAS G12S) [nM] | IC50 (KRAS WT) [nM] | Compound
< 500 | < 500 | C=C(F)C(=O)N1CC(CN2CCOc3c(Cl)c(-c4ccc(F)c5sc(N)c(C#N)c45)c(F)c4nc(OC[C@@]56CCCN5C[C@H](F)C6)nc2c34)C1 [Compound 491, 2-amino-4-(8-chloro-10-fluoro-4-((1-(2-fluoroacryloyl)azetidin-3-yl)methyl)-2-(((2R,7aS)-2-fluorotetrahydro-1H-pyrrolizin-7a(5H)-yl)methoxy)-5,6-dihydro-4H-[1,4]oxazepino[5,6,7-de]quinazolin-9-yl)-7-fluorobenzo[b]thiophene-3-carbonitrile]
< 500 | < 500 | CC(C)[C@@H]1[C@H](CN2CCOc3c(Cl)c(-c4ccc(F)c5sc(N)c(C#N)c45)c(F)c4nc(OC[C@@]56CCCN5C[C@H](F)C6)nc2c34)CN1C(=O)n1cnc(Cl)n1 [Compound 493, 2-amino-4-(8-chloro-4-(((2R,3R)-1-(3-chloro-1H-1,2,4-triazole-1-carbonyl)-2-isopropylazetidin-3-yl)methyl)-10-fluoro-2-(((2R,7aS)-2-fluorotetrahydro-1H-pyrrolizin-7a (5H)-yl)methoxy)-5,6-dihydro-4H-[1,4]oxazepino[5,6,7-de]quinazolin-9-yl)-7-fluorobenzo[b]thiophene-3-carbonitrile]
< 500 | < 500 | CC1([C@@H]2[C@H](CN3CCCOc4c(Cl)c(-c5ccc(F)c6sc(N)c(C#N)c56)c(F)c5nc(OC[C@@]67CCCN6C[C@H](F)C7)nc3c45)CN2C(=O)n2ccnc2)CC1 [Compound 494, 4-(4-(((2S,3R)-1-(1H-imidazole-1-carbonyl)-2-(1-methylcyclopropyl)azetidin-3-yl)methyl)-9-chloro-11-fluoro-2-(((2R,7aS)-2-fluorotetrahydro-1H-pyrrolizin-7a(5H)-yl)methoxy)-4,5,6,7-tetrahydro-[1,5]oxazocino [4,3,2-de]quinazolin-10-yl)-2-amino-7-fluorobenzo[b] thiophene-3-carbonitrile]
< 500 | < 500 | C[C@H](O)[C@H]1COc2c(Cl)c(-c3ccc(F)c4sc(N)c(C#N)c34)c(F)c3nc(OC[C@@]45CCCN4C[C@H](F)C5)nc(c23)N1CC1CCCN1C(=O)n1ccnc1 (stereo partly drawn) [Compound 495, 4-((5R)-4-((1-(1H-imidazole-1-carbonyl)pyrrolidin-2-yl)methyl)-8-chloro-10-fluoro-2-(((2R,7aS)-2-fluorotetrahydro-1H-pyrrolizin-7a(5H)-yl)methoxy)-5-((S)-1-hydroxyethyl)-5,6-dihydro-4H-[1,4]oxazepino [5,6,7-de]quinazolin-9-yl)-2-amino-7-fluorobenzo[b] thiophene-3-carbonitrile]
